Source: PubChem BioAssay (NCI)
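Five concentrations, 48 hours, 96-well plates. Abbreviation: GI50, concentration required for 50% inhibition of growth. TGI is the concentration that stops growth completely.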

Columns and labels:
Assay in all cases: NCI anticancer screen, dose series, 48 h
[1] = tested on: SK-MEL-2 melanoma
[2] = tested on: EKVX NSCLC
[3] = tested on: RXF 393 renal
[4] = tested on: KM12 colon
[5] = tested on: PC-3 prostate
[6] = tested on: OVCAR-5 ovarian
[7] = tested on: COLO 205 colon
[8] = tested on: HT29 colon
[9] = tested on: K-562 leukemia
[10] = tested on: NCI-H522 lung
[11] = tested on: HOP-62 NSCLC
[12] = tested on: OVCAR-8 ovarian
[13] = tested on: OVCAR-3 ovarian
[14] = tested on: SF-295 CNS
[15] = tested on: HL-60(TB) leukemia
[16] = tested on: SW-620 colon
[17] = tested on: NCI-H226 lung
[18] = tested on: A549 NSCLC
[19] = tested on: MALME-3M melanoma
[20] = tested on: M14 melanoma
[21] = tested on: SF-539 CNS
[22] = tested on: MCF7 breast
[23] = tested on: UO-31 renal
[24] = tested on: BT-549 breast
[25] = tested on: U251 CNS
[26] = tested on: HCT-116 colon
[27] = tested on: A498 renal
[28] = tested on: T-47D breast
[29] = tested on: 786-0 renal
[30] = tested on: MDA-MB-231 breast
[31] = tested on: HCT-15 colon
[32] = tested on: NCI-H460 lung
[33] = tested on: LOX IMVI melanoma
[34] = tested on: SNB-75 CNS
[35] = tested on: UACC-257 melanoma
[36] = tested on: UACC-62 melanoma
[37] = tested on: HS 578T breast
[38] = tested on: NCI/ADR-RES ovarian
[39] = tested on: TK-10 renal
[40] = tested on: DU-145 prostate
[41] = tested on: SK-OV-3 ovarian
[42] = tested on: HOP-92 NSCLC
[43] = tested on: SN12C renal
[44] = tested on: NCI-H23 lung
[45] = tested on: MDA-MB-435
[46] = tested on: HCC-2998 colon
[47] = tested on: SK-MEL-28 melanoma
[48] = tested on: RPMI-8226 leukemia
[49] = tested on: CCRF-CEM leukemia
[50] = tested on: SK-MEL-5 melanoma
[51] = tested on: ACHN renal
[52] = tested on: IGROV1 ovarian
[53] = tested on: OVCAR-4 ovarian
[54] = tested on: SNB-19 CNS
[55] = tested on: SF-268 CNS
[56] = tested on: SR leukemia
[57] = tested on: MOLT-4 leukemia
[58] = tested on: CAKI-1 renal

## Cn1c2c(c3ccc(-c4ccn[nH]4)cc3c1=O)C(=O)c1ccccc1-2
[1]
  GI50: > 100 µM
  TGI: > 100 µM
[2]
  GI50: 2.95 µM
  TGI: > 100 µM
[3]
  GI50: 3.61 µM
  TGI: > 100 µM
[4]
  GI50: 2.34 µM
  TGI: > 100 µM
[5]
  GI50: 4.28 µM
  TGI: > 100 µM
[6]
  GI50: 5.08 µM
  TGI: > 100 µM
[7]
  GI50: 5.51 µM
  TGI: > 100 µM
[8]
  GI50: 1.52 µM
  TGI: 4.85 µM
[9]
  GI50: 2.17 µM
  TGI: > 100 µM
[10]
  GI50: 2.22 µM
  TGI: 23.8 µM
[11]
  GI50: 1.92 µM
  TGI: 9.89 µM
[12]
  GI50: 1.78 µM
  TGI: 34.6 µM
[13]
  GI50: 5.97 µM
  TGI: 76.3 µM
[14]
  GI50: 3.81 µM
  TGI: > 100 µM
[15]
  GI50: 0.813 µM
  TGI: 5.53 µM
[16]
  GI50: 2.15 µM
  TGI: > 100 µM
[17]
  GI50: 1.83 µM
  TGI: 5.39 µM
[18]
  GI50: 1.03 µM
  TGI: 3.04 µM
[19]
  GI50: 4.21 µM
  TGI: > 100 µM
[20]
  GI50: 3.6 µM
  TGI: > 100 µM
[21]
  GI50: 2.28 µM
  TGI: 11.4 µM
[22]
  GI50: 0.408 µM
  TGI: > 100 µM
[23]
  GI50: 1.5 µM
  TGI: > 100 µM
[24]
  GI50: 2.29 µM
  TGI: 8.78 µM
[25]
  GI50: 1.66 µM
  TGI: 10.5 µM
[26]
  GI50: 1.52 µM
  TGI: 19 µM
[27]
  GI50: 6.44 µM
  TGI: > 100 µM
[28]
  GI50: 2.86 µM
  TGI: > 100 µM
[29]
  GI50: 1.49 µM
  TGI: 4.46 µM
[30]
  GI50: 4.46 µM
  TGI: 64.7 µM
[31]
  GI50: 1.51 µM
  TGI: > 100 µM
[32]
  GI50: 0.494 µM
  TGI: 3.37 µM
[33]
  GI50: 1.06 µM
  TGI: 4.78 µM
[34]
  GI50: 6.18 µM
  TGI: > 100 µM
[35]
  GI50: 7.79 µM
  TGI: > 100 µM
[36]
  GI50: 3.1 µM
  TGI: > 100 µM
[37]
  GI50: 6.84 µM
  TGI: > 100 µM
[38]
  GI50: 3.78 µM
  TGI: > 100 µM
[39]
  GI50: 4.02 µM
  TGI: 68.6 µM
[40]
  GI50: 1.71 µM
  TGI: > 100 µM
[41]
  GI50: 5.21 µM
  TGI: > 100 µM
[42]
  GI50: 2.84 µM
  TGI: 9.93 µM
[43]
  GI50: 2.1 µM
  TGI: 8.86 µM
[44]
  GI50: 2.64 µM
  TGI: > 100 µM
[45]
  GI50: 7.51 µM
  TGI: > 100 µM
[46]
  GI50: 11.6 µM
  TGI: > 100 µM
[47]
  GI50: 42.5 µM
  TGI: > 100 µM
[48]
  GI50: 1.77 µM
  TGI: 4.79 µM
[49]
  GI50: 0.832 µM
  TGI: > 100 µM
[50]
  GI50: 1.76 µM
  TGI: 5.68 µM
[51]
  GI50: 1.34 µM
  TGI: 5.78 µM
[52]
  GI50: 2.18 µM
  TGI: > 100 µM
[53]
  GI50: 7.65 µM
  TGI: > 100 µM
[54]
  GI50: 2.71 µM
  TGI: 17.3 µM
[55]
  GI50: 3.21 µM
  TGI: > 100 µM

## Cc1cc2cc3c(Cl)c(CCCl)c(C)nc3cc2c(Cl)c1CCCl
[2]
  TGI: 42.3 µM
[3]
  TGI: 17.5 µM
[4]
  TGI: 46.4 µM
[5]
  TGI: 39.6 µM
[7]
  TGI: 36.1 µM
[8]
  TGI: > 100 µM
[9]
  TGI: 43.3 µM
[10]
  TGI: 37.7 µM
[11]
  TGI: 27.8 µM
[12]
  TGI: 94.5 µM
[56]
  TGI: 32.9 µM
[13]
  TGI: 34.4 µM
[14]
  TGI: 35.2 µM
[15]
  TGI: 27.3 µM
[16]
  TGI: 76.8 µM
[17]
  TGI: 20.5 µM
[18]
  TGI: 57.2 µM
[19]
  TGI: 45.7 µM
[21]
  TGI: 30 µM
[22]
  TGI: 56.7 µM
[23]
  TGI: 50.9 µM
[24]
  TGI: 47.7 µM
[25]
  TGI: 60 µM
[26]
  TGI: 31.8 µM
[27]
  TGI: 48.4 µM
[28]
  TGI: 69.8 µM
[29]
  TGI: 78.6 µM
[31]
  TGI: > 100 µM
[32]
  TGI: 34.2 µM
[33]
  TGI: 29.5 µM
[34]
  TGI: > 100 µM
[57]
  TGI: 44.7 µM
[35]
  TGI: 34.8 µM
[36]
  TGI: 34.4 µM
[37]
  TGI: 30.6 µM
[38]
  TGI: 61.8 µM
[39]
  TGI: > 100 µM
[40]
  TGI: 80.3 µM
[42]
  TGI: 35.4 µM
[44]
  TGI: 63.6 µM
[45]
  TGI: 30.8 µM
[46]
  TGI: 39.7 µM
[47]
  TGI: 35.1 µM
[48]
  TGI: 36.5 µM
[49]
  TGI: 48.9 µM
[50]
  TGI: 26.6 µM
[51]
  TGI: 75.5 µM
[52]
  TGI: > 100 µM
[53]
  TGI: 66.3 µM
[54]
  TGI: 85.9 µM
[55]
  TGI: 30.9 µM

## Clc1ccc(N2CCN(CCCN3CCN(c4cccc(Cl)c4)CC3)CC2)cc1
[1]
  GI50: 14.3 µM
  TGI: 31.5 µM
[2]
  GI50: 4.5 µM
  TGI: 35.9 µM
[3]
  GI50: 6.7 µM
  TGI: 22.4 µM
[4]
  GI50: 3.45 µM
  TGI: 15.6 µM
[5]
  GI50: 3.34 µM
  TGI: 16.4 µM
[6]
  GI50: 9.12 µM
  TGI: 29.6 µM
[7]
  GI50: 1.62 µM
  TGI: 3.35 µM
[8]
  GI50: 3.03 µM
  TGI: 13.5 µM
[9]
  GI50: 1.45 µM
  TGI: 6.08 µM
[10]
  GI50: 14.7 µM
  TGI: 34 µM
[11]
  GI50: 3.97 µM
  TGI: 18.1 µM
[12]
  GI50: 10.4 µM
  TGI: 28.1 µM
[58]
  GI50: 7.43 µM
  TGI: 25.6 µM
[13]
  GI50: 3.44 µM
  TGI: 15.3 µM
[14]
  GI50: 3.74 µM
  TGI: 19.1 µM
[15]
  GI50: 2.33 µM
  TGI: 6.7 µM
[16]
  GI50: 3.08 µM
  TGI: 14 µM
[17]
  GI50: 6.51 µM
  TGI: 23.3 µM
[18]
  GI50: 8.57 µM
  TGI: 28.4 µM
[19]
  GI50: 2.06 µM
  TGI: 6.15 µM
[20]
  GI50: 1.57 µM
  TGI: 3.21 µM
[21]
  GI50: 3.21 µM
  TGI: 12.4 µM
[22]
  GI50: 2.92 µM
  TGI: 12.2 µM
[23]
  GI50: 3.56 µM
  TGI: 16.2 µM
[24]
  GI50: 3.72 µM
  TGI: 15.6 µM
[25]
  GI50: 5.45 µM
  TGI: 20.1 µM
[26]
  GI50: 2.45 µM
  TGI: 12.2 µM
[27]
  GI50: 4.61 µM
  TGI: 18.8 µM
[28]
  GI50: 1.63 µM
  TGI: 14.3 µM
[29]
  GI50: 4.63 µM
  TGI: 18.5 µM
[30]
  GI50: 4.22 µM
  TGI: 18.6 µM
[31]
  GI50: 4.9 µM
  TGI: 22.4 µM
[32]
  GI50: 3.78 µM
  TGI: 15.8 µM
[33]
  GI50: 2.8 µM
  TGI: 13.8 µM
[34]
  GI50: 2.52 µM
  TGI: 14.8 µM
[57]
  GI50: 2.01 µM
  TGI: 17.4 µM
[35]
  GI50: 4.33 µM
  TGI: 16.3 µM
[36]
  GI50: 2.86 µM
  TGI: 11.3 µM
[37]
  GI50: 4.82 µM
  TGI: 22 µM
[38]
  GI50: 4.6 µM
  TGI: 20.7 µM
[39]
  GI50: 5.32 µM
  TGI: 21.3 µM
[40]
  GI50: 8.14 µM
  TGI: 21.4 µM
[41]
  GI50: 10.7 µM
  TGI: 23.2 µM
[42]
  GI50: 0.813 µM
  TGI: 11.4 µM
[43]
  GI50: 7.51 µM
  TGI: 21.6 µM
[44]
  GI50: 3.33 µM
  TGI: 17.8 µM
[45]
  GI50: 3.36 µM
  TGI: 16.7 µM
[46]
  GI50: 2.65 µM
  TGI: 11.7 µM
[47]
  GI50: 2.53 µM
  TGI: 8.27 µM
[48]
  GI50: 1.79 µM
  TGI: 7.84 µM
[49]
  GI50: 3.8 µM
  TGI: 25.3 µM
[50]
  GI50: 1.6 µM
  TGI: 3.46 µM
[51]
  GI50: 7.77 µM
  TGI: 21.5 µM
[52]
  GI50: 8.89 µM
  TGI: 24.6 µM
[53]
  GI50: 5.77 µM
  TGI: 20.7 µM
[54]
  GI50: 11.3 µM
  TGI: 24.7 µM
[55]
  GI50: 7.77 µM
  TGI: 21.4 µM
